Source: patent US20250034135A1, “ANTI-APOPTOTIC PROTEIN BCL-2 INHIBITOR, PHARMACEUTICAL COMPOSITION AND USES THEREOF” (HANGZHOU HEALZEN THERAPEUTICS CO., LTD., priority 2021, published 2025)

Biological target: BCL2 (Homo sapiens (Human), UniProt P10415)
Experiment: Molecular level activity test of anti-apoptotic protein BCL2 (HTRF, binding to Bim peptide)
Settings: HTRF, binding of BCL2 to Bim peptide; read-out: BCL2 nM (inhibitory activity, IC50)
Description: The detection of the binding ability between anti-apoptotic protein BCL2 and pro-apoptotic protein Bim was performed using Homogeneous Time-Resolved Fluorescence technology. The reaction of this method occurred in a white shallow 384-well plate, with a total reaction volume of 10 μL. Specifically, it included 2 μL of the compound to be tested (2% DMSO), 4 μL His-tagged recombinant protein, and 4 μL Biotin-tagged BIM protein peptide. After 1 hour of reaction, 5 μL of each Anti-His and streptavidin-tagged XL665 antibody diluents diluted with a detection buffer were added. After incubating at room temperature for 4 hours, the values were read using the Envision multifunctional microplate reader to detect the effect of the compound to be tested on the binding ability of BCL2 to Bim protein peptides.

Sequence of BCL2 (P10415 whole entry): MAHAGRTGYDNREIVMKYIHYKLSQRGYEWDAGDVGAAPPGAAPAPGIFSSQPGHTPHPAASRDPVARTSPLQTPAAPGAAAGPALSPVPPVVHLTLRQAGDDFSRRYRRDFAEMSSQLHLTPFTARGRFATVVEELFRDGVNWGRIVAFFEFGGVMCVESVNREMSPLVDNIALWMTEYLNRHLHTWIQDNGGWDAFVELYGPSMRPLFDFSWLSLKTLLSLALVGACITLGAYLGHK

IC50, < 10 nM:
COc1ccc(CN2CCN(C3CC4(CCN(c5cc(Oc6cnc7[nH]ccc7c6)c(C(=O)NS(=O)(=O)c6cc([N+](=O)[O-])c(NCC7(F)CCOCC7)c7c6ncc(=O)n7C)cc5F)CC4)C3)[C@H](c3ccccc3C(C)C)C2)cc1
CC(C)c1ccccc1[C@@H]1CCCN1C1CC2(CCN(c3ccc(C(=O)NS(=O)(=O)c4cc([N+](=O)[O-])c(NC[C@H]5CC[C@](C)(O)CC5)c5[nH]ccc45)c(Oc4cnc5[nH]ccc5c4)c3)CC2)C1 [compound 009, 2-((1H-pyrrolo[2,3-b]pyrid-5-yl)oxy)-N-((7-((((1r,4r)-4-hydroxy-4-methylcyclohexyl)methyl)amino)-6-nitro-1H-indol-4-yl)sulfonyl)-4-(2-((S)-2-(2-isopropylphenyl)pyrrolidin-1-yl)-7-azaspiro[3.5]non-7-yl)benzamide]
CC(C)c1ccccc1[C@@H]1CCCN1C1CC2(CCN(c3ccc(C(=O)NS(=O)(=O)c4cc([N+](=O)[O-])c(NCC5(F)CCN(C(C)C)CC5)c5[nH]ccc45)c(Oc4cnc5[nH]ccc5c4)c3)CC2)C1 [compound 010, (S)-2-((1H-pyrrolo[2,3-b]pyrid-5-yl)oxy)-N-((7-(((4-fluoro-1-isopropylpiperid-4-yl)methyl)amino)-6-nitro-1H-indol-4-yl)sulfonyl)-4-(2-(2-(2-isopropylphenyl)pyrrolidin-1-yl)-7-azaspiro[3.5]non-7-yl)benzamide]
CC(C)c1ccccc1[C@@H]1CCCN1C1CC2(CCN(c3ccc(C(=O)NS(=O)(=O)c4cc([N+](=O)[O-])c(NC[C@H]5CC[C@](C)(O)CC5)c5[nH]cnc45)c(Oc4cnc5[nH]cc(F)c5c4)c3)CC2)C1 [compound 011, 2-((3-fluoro-1H-pyrrolo[2,3-b]pyrid-5-yl)oxy)-N-((7-((((1r,4r)-4-hydroxy-4-methylcyclohexyl)methyl)amino)-6-nitro-1H-benzo[d]imidazol-4-yl)sulfonyl)-4-(2-((S)-2-(2-isopropylphenyl)pyrrolidin-1-yl)-7-azaspiro[3.5]non-7-yl)benzamide]
CC(C)c1ccccc1[C@@H]1CCCN1C1CC2(CCN(c3cc(Oc4cnc5[nH]ccc5c4)c(C(=O)NS(=O)(=O)c4cc([N+](=O)[O-])c(NC[C@H]5CC[C@](C)(O)CC5)c5[nH]cnc45)cc3F)CC2)C1 [compound 014, 2-((1H-pyrrolo[2,3-b]pyrid-5-yl)oxy)-5-fluoro-N-((7-((((1r,4r)-4-hydroxy-4-methylcyclohexyl)methyl)amino)-6-nitro-1H-benzo[d]imidazol-4-yl)sulfonyl)-4-(2-((S)-2-(2-isopropylphenyl)pyrrolidin-1-yl)-7-azaspiro[3.5]non-7-yl)benzamide]
CC(C)c1ccccc1[C@@H]1CCCN1C1CC2(CCN(c3cc(Oc4cnc5[nH]ccc5c4)c(C(=O)NS(=O)(=O)c4cc([N+](=O)[O-])c(NCC5CCC(O)CC5)c5[nH]cnc45)cc3F)CC2)C1 (some centres unmarked) [compound 016]
CC(C)c1ccccc1[C@@H]1CCCN1C1CC2(CCN(c3cc(Oc4cnc5[nH]ccc5c4)c(C(=O)NS(=O)(=O)c4cc([N+](=O)[O-])c(NC[C@H]5C[C@@](C)(O)C5)c5[nH]cnc45)cn3)CC2)C1 [compound 017, 4-((1H-pyrrolo[2,3-b]pyrid-5-yl)oxy)-N-((7-((((1S,3S)-3-hydroxy-3-methylcyclobutyl)methyl)amino)-6-nitro-1H-benzo[d]imidazol-4-yl)sulfonyl)-6-(2-((S)-2-(2-isopropylphenyl)pyrrolidin-1-yl)-7-azaspiro[3.5]non-7-yl) nicotinamide]
CC(C)c1ccccc1[C@@H]1CCCN1C1CC2(CCN(c3cc(Oc4cnc5[nH]ccc5c4)c(C(=O)NS(=O)(=O)c4cc([N+](=O)[O-])c(NC[C@H]5C[C@@](C)(O)C5)c5[nH]cnc45)cc3F)CC2)C1 [compound 018, 2-((1H-pyrrolo[2,3-b]pyrid-5-yl)oxy)-5-fluoro-N-((7-((((1S,3S)-3-hydroxy-3-methylcyclobutyl)methyl)amino)-6-nitro-1H-benzo[d]imidazol-4-yl)sulfonyl)-4-(2-((S)-2-(2-isopropylphenyl)pyrrolidin-1-yl)-7-azaspiro[3.5]non-7-yl)benzamide]
CC(C)c1ccccc1[C@@H]1CCCN1C1CC2(CCN(c3cc(Oc4cnc5[nH]ccc5c4)c(C(=O)NS(=O)(=O)c4cc([N+](=O)[O-])c(NCC5(F)CCN(C(C)C)CC5)c5[nH]cnc45)cn3)CC2)C1 [compound 021, (S)-4-((1H-pyrrolo[2,3-b]pyrid-5-yl)oxy)-N-((7-(((4-fluoro-1-isopropylpiperid-4-yl)methyl)amino)-6-nitro-1H-benzo[d]imidazol-4-yl)sulfonyl)-6-(2-(2-(2-isopropylphenyl)pyrrolidin-1-yl)-7-azaspiro[3.5]non-7-yl) nicotinamide]
CC(C)c1ccccc1[C@@H]1CCCN1C1CC2(CCN(c3cc(Oc4cnc5[nH]ccc5c4)c(C(=O)NS(=O)(=O)c4cc([N+](=O)[O-])c(NCC5(F)CCN(C(C)C)CC5)c5[nH]cnc45)cc3F)CC2)C1 [compound 022, (S)-2-((1H-pyrrolo[2,3-b]pyrid-5-yl)oxy)-5-fluoro-N-((7-(((4-fluoro-1-isopropylpiperid-4-yl)methyl)amino)-6-nitro-1H-benzo[d]imidazol-4-yl)sulfonyl)-4-(2-(2-(2-isopropylphenyl)pyrrolidin-1-yl)-7-azaspiro[3.5]non-7-yl)benzamide]
CC(C)c1ccccc1[C@@H]1CCCN1C1CC2(CCN(c3cc(Oc4cnc5[nH]ccc5c4)c(C(=O)NS(=O)(=O)c4cc([N+](=O)[O-])c(NCC5(F)CCN(C6CCOCC6)CC5)c5[nH]cnc45)cn3)CC2)C1 [compound 023]
CC(C)c1ccccc1[C@@H]1CCCN1C1CC2(CCN(c3cc(Oc4cnc5[nH]ccc5c4)c(C(=O)NS(=O)(=O)c4cc([N+](=O)[O-])c(NCC5(F)CCN(C6CCOCC6)CC5)c5[nH]cnc45)cc3F)CC2)C1 [compound 024, (S)-2-((1H-pyrrolo[2,3-b]pyrid-5-yl)oxy)-5-fluoro-N-((7-(((4-fluoro-1-(tetrahydro-2H-pyran-4-yl)piperid-4-yl)methyl)amino)-6-nitro-1H-benzo[d]imidazol-4-yl)sulfonyl)-4-(2-(2-(2-isopropylphenyl)pyrrolidin-1-yl)-7-azaspiro[3.5]non-7-yl)benzamide]
CC(C)c1ccccc1[C@@H]1CCCN1C1CC2(CCN(c3cc(Oc4cnc5[nH]ccc5c4)c(C(=O)NS(=O)(=O)c4cc([N+](=O)[O-])c(NCC5(F)CCN(CC(C)(C)C)CC5)c5[nH]cnc45)cn3)CC2)C1 [compound 025, (S)-4-((1H-pyrrolo[2,3-b]pyrid-5-yl)oxy)-N-((7-(((4-fluoro-1-neopentylpiperid-4-yl)methyl)amino)-6-nitro-1H-benzo[d]imidazol-4-yl)sulfonyl)-6-(2-(2-(2-isopropylphenyl)pyrrolidin-1-yl)-7-azaspiro[3.5]non-7-yl) nicotinamide]
CC(C)c1ccccc1[C@@H]1CCCN1C1CC2(CCN(c3cc(Oc4cnc5[nH]ccc5c4)c(C(=O)NS(=O)(=O)c4cc([N+](=O)[O-])c(NCC5(F)CCN(CC(C)(C)C)CC5)c5[nH]cnc45)cc3F)CC2)C1 [compound 026]
